Data as given in patent US11083725B2 (priority 2014, dated 2021).

System: NHBE cells
Assay: Biolog metabolic array: substrate use by NHBE cells with or without CA09 infection
Format: cell-based, human
Conditions: for Substrate use, 590 nm absorbance normalized to zero hour, 0 hr: Biolog PMM2, 0 hr; for Substrate use, 590 nm absorbance normalized to zero hour, 1 hr: Biolog PMM2, 1 hr; for Substrate use, 590 nm absorbance normalized to zero hour, 5 hr: Biolog PMM2, 5 hr; for Substrate use, 590 nm absorbance normalized to zero hour, 7 hr: Biolog PMM2, 7 hr
[1] = Control (uninfected) NHBE cells
[2] = Virus (CA09-infected, MOI 1) NHBE cells
[3] = Virus: CA09-infected NHBE cells, MOI 1, Biolog PMM2
[4] = Virus (CA09, MOI 1) infected NHBE cells

SMILES: OC[C@H]1O[C@@](CO)(O[C@H]2O[C@H](CO)[C@@H](O)[C@H](O)[C@H]2O)[C@@H](O[C@H]2O[C@H](CO)[C@@H](O)[C@H](O)[C@H]2O)[C@@H]1O [D-Melezitose]
- 590 nm absorbance normalized to zero hour (substrate use), 0 hr [1]: 1.00
- 590 nm absorbance normalized to zero hour (substrate use), 1 hr [1]: 1.47
- 590 nm absorbance normalized to zero hour (substrate use), 2 hr [1]: 1.93
- 590 nm absorbance normalized to zero hour (substrate use), 3 hr [1]: 2.23
- 590 nm absorbance normalized to zero hour (substrate use), 4 hr [1]: 2.39
- 590 nm absorbance normalized to zero hour (substrate use), 6 hr [1]: 3.85
- 590 nm absorbance normalized to zero hour (substrate use), 8 hr [1]: 3.55
- 590 nm absorbance normalized to zero hour (substrate use), 9 hr [1]: 3.84
- 590 nm absorbance normalized to zero hour (substrate use), 10 hr [1]: 4.31
- 590 nm absorbance normalized to zero hour (substrate use), 11 hr [1]: 3.97
- Substrate use, 590 nm absorbance normalized to zero hour, 0 hr [1]: 1.00
- Substrate use, 590 nm absorbance normalized to zero hour, 1 hr [1]: 1.47
- Substrate use, 590 nm absorbance normalized to zero hour, 5 hr [1]: 2.80
- Substrate use, 590 nm absorbance normalized to zero hour, 7 hr [1]: 3.32
- 590 nm absorbance normalized to zero hour (substrate use), 0 hr [2]: 1.00
- 590 nm absorbance normalized to zero hour (substrate use), 1 hr [2]: 1.67
- 590 nm absorbance normalized to zero hour (substrate use), 2 hr [2]: 2.39
- 590 nm absorbance normalized to zero hour (substrate use), 3 hr [2]: 2.73
- 590 nm absorbance normalized to zero hour (substrate use), 4 hr [2]: 2.88
- 590 nm absorbance normalized to zero hour (substrate use), 5 hr [2]: 3.35
- 590 nm absorbance normalized to zero hour (substrate use), 6 hr [2]: 3.57
- 590 nm absorbance normalized to zero hour (substrate use), 7 hr [2]: 3.77
- 590 nm absorbance normalized to zero hour (substrate use), 8 hr [2]: 3.98
- 590 nm absorbance normalized to zero hour (substrate use), 9 hr [2]: 4.49
- 590 nm absorbance normalized to zero hour (substrate use), 10 hr [2]: 4.69
- 590 nm absorbance normalized to zero hour (substrate use), 11 hr [2]: 5.01
- 590 nm absorbance normalized to zero hour (substrate use), 0 hr [3]: 1.00
- 590 nm absorbance normalized to zero hour (substrate use), 1 hr [3]: 1.67
- 590 nm absorbance normalized to zero hour (substrate use), 2 hr [3]: 2.39
- 590 nm absorbance normalized to zero hour (substrate use), 3 hr [3]: 2.73
- 590 nm absorbance normalized to zero hour (substrate use), 4 hr [3]: 2.88
- 590 nm absorbance normalized to zero hour (substrate use), 5 hr [3]: 3.35
- 590 nm absorbance normalized to zero hour (substrate use), 6 hr [3]: 3.57
- 590 nm absorbance normalized to zero hour (substrate use), 7 hr [3]: 3.77
- 590 nm absorbance normalized to zero hour (substrate use), 8 hr [3]: 3.98
- 590 nm absorbance normalized to zero hour (substrate use), 9 hr [3]: 4.49
- 590 nm absorbance normalized to zero hour (substrate use), 10 hr [3]: 4.69
- 590 nm absorbance normalized to zero hour (substrate use), 11 hr [3]: 5.01

SMILES: OC[C@H]1O[C@H](OCC2O[C@@H](O)[C@H](O)[C@@H](O)[C@@H]2O)[C@H](O)[C@@H](O)[C@H]1O (stereo partly drawn) [D-Melibiose]
- 590 nm absorbance normalized to zero hour (substrate use), 0 hr [1]: 1.00
- 590 nm absorbance normalized to zero hour (substrate use), 1 hr [1]: 0.88
- 590 nm absorbance normalized to zero hour (substrate use), 2 hr [1]: 1.14
- 590 nm absorbance normalized to zero hour (substrate use), 3 hr [1]: 1.40
- 590 nm absorbance normalized to zero hour (substrate use), 4 hr [1]: 1.44
- 590 nm absorbance normalized to zero hour (substrate use), 6 hr [1]: 1.81
- 590 nm absorbance normalized to zero hour (substrate use), 8 hr [1]: 1.80
- 590 nm absorbance normalized to zero hour (substrate use), 9 hr [1]: 2.05
- 590 nm absorbance normalized to zero hour (substrate use), 10 hr [1]: 2.19
- 590 nm absorbance normalized to zero hour (substrate use), 11 hr [1]: 1.80
- Substrate use, 590 nm absorbance normalized to zero hour, 0 hr [1]: 1.00
- Substrate use, 590 nm absorbance normalized to zero hour, 1 hr [1]: 0.88
- Substrate use, 590 nm absorbance normalized to zero hour, 5 hr [1]: 1.69
- Substrate use, 590 nm absorbance normalized to zero hour, 7 hr [1]: 1.88
- Substrate use, 590 nm absorbance normalized to zero hour, 0 hr [4]: 1.00
- Substrate use, 590 nm absorbance normalized to zero hour, 1 hr [4]: 3.65
- Substrate use, 590 nm absorbance normalized to zero hour, 5 hr [4]: 3.62
- Substrate use, 590 nm absorbance normalized to zero hour, 7 hr [4]: 3.59
- 590 nm absorbance normalized to zero hour (substrate use), 0 hr [2]: 1.00
- 590 nm absorbance normalized to zero hour (substrate use), 1 hr [2]: 3.65
- 590 nm absorbance normalized to zero hour (substrate use), 2 hr [2]: 3.76
- 590 nm absorbance normalized to zero hour (substrate use), 3 hr [2]: 3.77
- 590 nm absorbance normalized to zero hour (substrate use), 4 hr [2]: 3.78
- 590 nm absorbance normalized to zero hour (substrate use), 6 hr [2]: 3.58
- 590 nm absorbance normalized to zero hour (substrate use), 8 hr [2]: 3.20
- 590 nm absorbance normalized to zero hour (substrate use), 9 hr [2]: 1.54
- 590 nm absorbance normalized to zero hour (substrate use), 10 hr [2]: 1.54
- 590 nm absorbance normalized to zero hour (substrate use), 11 hr [2]: 1.63

SMILES: OC[C@H]1O[C@H](OC[C@H]2O[C@H](O[C@]3(CO)O[C@H](CO)[C@@H](O)[C@@H]3O)[C@H](O)[C@@H](O)[C@@H]2O)[C@H](O)[C@@H](O)[C@H]1O [D-Raffinose]
- 590 nm absorbance normalized to zero hour (substrate use), 0 hr [1]: 1.00
- 590 nm absorbance normalized to zero hour (substrate use), 1 hr [1]: 1.09
- 590 nm absorbance normalized to zero hour (substrate use), 2 hr [1]: 1.11
- 590 nm absorbance normalized to zero hour (substrate use), 3 hr [1]: 1.37
- 590 nm absorbance normalized to zero hour (substrate use), 4 hr [1]: 1.53
- 590 nm absorbance normalized to zero hour (substrate use), 6 hr [1]: 0.75
- 590 nm absorbance normalized to zero hour (substrate use), 8 hr [1]: 1.82
- 590 nm absorbance normalized to zero hour (substrate use), 9 hr [1]: 1.82
- 590 nm absorbance normalized to zero hour (substrate use), 10 hr [1]: 2.00
- 590 nm absorbance normalized to zero hour (substrate use), 11 hr [1]: 2.15
- Substrate use, 590 nm absorbance normalized to zero hour, 0 hr [1]: 1.00
- Substrate use, 590 nm absorbance normalized to zero hour, 1 hr [1]: 1.09
- Substrate use, 590 nm absorbance normalized to zero hour, 5 hr [1]: 1.75
- Substrate use, 590 nm absorbance normalized to zero hour, 7 hr [1]: 1.71
- 590 nm absorbance normalized to zero hour (substrate use), 0 hr [2]: 1.00
- 590 nm absorbance normalized to zero hour (substrate use), 1 hr [2]: 0.68
- 590 nm absorbance normalized to zero hour (substrate use), 2 hr [2]: 0.59
- 590 nm absorbance normalized to zero hour (substrate use), 3 hr [2]: 0.55
- 590 nm absorbance normalized to zero hour (substrate use), 4 hr [2]: 0.49
- 590 nm absorbance normalized to zero hour (substrate use), 5 hr [2]: 1.98
- 590 nm absorbance normalized to zero hour (substrate use), 6 hr [2]: 0.54
- 590 nm absorbance normalized to zero hour (substrate use), 7 hr [2]: 1.92
- 590 nm absorbance normalized to zero hour (substrate use), 8 hr [2]: 1.77
- 590 nm absorbance normalized to zero hour (substrate use), 9 hr [2]: 1.74
- 590 nm absorbance normalized to zero hour (substrate use), 10 hr [2]: 1.15
- 590 nm absorbance normalized to zero hour (substrate use), 11 hr [2]: 1.53
- 590 nm absorbance normalized to zero hour (substrate use), 0 hr [3]: 1.00
- 590 nm absorbance normalized to zero hour (substrate use), 1 hr [3]: 0.68
- 590 nm absorbance normalized to zero hour (substrate use), 2 hr [3]: 0.59
- 590 nm absorbance normalized to zero hour (substrate use), 3 hr [3]: 0.55
- 590 nm absorbance normalized to zero hour (substrate use), 4 hr [3]: 0.49
- 590 nm absorbance normalized to zero hour (substrate use), 5 hr [3]: 1.98
- 590 nm absorbance normalized to zero hour (substrate use), 6 hr [3]: 0.54
- 590 nm absorbance normalized to zero hour (substrate use), 7 hr [3]: 1.92
- 590 nm absorbance normalized to zero hour (substrate use), 8 hr [3]: 1.77
- 590 nm absorbance normalized to zero hour (substrate use), 9 hr [3]: 1.74
- 590 nm absorbance normalized to zero hour (substrate use), 10 hr [3]: 1.15
- 590 nm absorbance normalized to zero hour (substrate use), 11 hr [3]: 1.53

SMILES: OC[C@@H](O)[C@@H](O)[C@H](O)[C@@H](O)CO [D-Sorbitol]
- 590 nm absorbance normalized to zero hour (substrate use), 1 hr [1]: 2.10
- 590 nm absorbance normalized to zero hour (substrate use), 2 hr [1]: 2.97
- 590 nm absorbance normalized to zero hour (substrate use), 3 hr [1]: 3.57
- 590 nm absorbance normalized to zero hour (substrate use), 4 hr [1]: 3.84
- 590 nm absorbance normalized to zero hour (substrate use), 6 hr [1]: 4.81
- 590 nm absorbance normalized to zero hour (substrate use), 8 hr [1]: 5.56
- 590 nm absorbance normalized to zero hour (substrate use), 9 hr [1]: 6.08
- 590 nm absorbance normalized to zero hour (substrate use), 10 hr [1]: 6.47
- 590 nm absorbance normalized to zero hour (substrate use), 11 hr [1]: 6.92
- Substrate use, 590 nm absorbance normalized to zero hour, 1 hr [1]: 2.10
- Substrate use, 590 nm absorbance normalized to zero hour, 5 hr [1]: 4.59
- Substrate use, 590 nm absorbance normalized to zero hour, 7 hr [1]: 5.29
- 590 nm absorbance normalized to zero hour (substrate use), 1 hr [2]: 1.80
- 590 nm absorbance normalized to zero hour (substrate use), 2 hr [2]: 2.63
- 590 nm absorbance normalized to zero hour (substrate use), 3 hr [2]: 3.10
- 590 nm absorbance normalized to zero hour (substrate use), 4 hr [2]: 3.35
- 590 nm absorbance normalized to zero hour (substrate use), 5 hr [2]: 4.00
- 590 nm absorbance normalized to zero hour (substrate use), 6 hr [2]: 4.37
- 590 nm absorbance normalized to zero hour (substrate use), 7 hr [2]: 4.63
- 590 nm absorbance normalized to zero hour (substrate use), 8 hr [2]: 4.94
- 590 nm absorbance normalized to zero hour (substrate use), 9 hr [2]: 5.39
- 590 nm absorbance normalized to zero hour (substrate use), 10 hr [2]: 5.64
- 590 nm absorbance normalized to zero hour (substrate use), 11 hr [2]: 6.18
- 590 nm absorbance normalized to zero hour (substrate use), 1 hr [3]: 1.80
- 590 nm absorbance normalized to zero hour (substrate use), 2 hr [3]: 2.63
- 590 nm absorbance normalized to zero hour (substrate use), 3 hr [3]: 3.10
- 590 nm absorbance normalized to zero hour (substrate use), 4 hr [3]: 3.35
- 590 nm absorbance normalized to zero hour (substrate use), 5 hr [3]: 4.00
- 590 nm absorbance normalized to zero hour (substrate use), 6 hr [3]: 4.37
- 590 nm absorbance normalized to zero hour (substrate use), 7 hr [3]: 4.63
- 590 nm absorbance normalized to zero hour (substrate use), 8 hr [3]: 4.94
- 590 nm absorbance normalized to zero hour (substrate use), 9 hr [3]: 5.39
- 590 nm absorbance normalized to zero hour (substrate use), 10 hr [3]: 5.64
- 590 nm absorbance normalized to zero hour (substrate use), 11 hr [3]: 6.18
